# According to patent US9758524B2, “4-imidazopyridazin-1-yl-benzamides as Btk inhibitors” (Merck Sharp & Dohme B.V., priority 2011, dated 2017):
# Read-outs that look alike come from different tables or passages of the source.
# What was measured:
# Lck enzyme = Lck enzyme (Homo sapiens (Human), UniProt P06239); experiment: Lck enzyme activity (IMAP fluorescence polarization assay)
# Lyn enzyme = Lyn enzyme (Homo sapiens (Human), UniProt P07948); experiment: Lyn enzyme activity (IMAP fluorescence polarization assay)
# Sequence of Lyn enzyme (P07948 whole entry): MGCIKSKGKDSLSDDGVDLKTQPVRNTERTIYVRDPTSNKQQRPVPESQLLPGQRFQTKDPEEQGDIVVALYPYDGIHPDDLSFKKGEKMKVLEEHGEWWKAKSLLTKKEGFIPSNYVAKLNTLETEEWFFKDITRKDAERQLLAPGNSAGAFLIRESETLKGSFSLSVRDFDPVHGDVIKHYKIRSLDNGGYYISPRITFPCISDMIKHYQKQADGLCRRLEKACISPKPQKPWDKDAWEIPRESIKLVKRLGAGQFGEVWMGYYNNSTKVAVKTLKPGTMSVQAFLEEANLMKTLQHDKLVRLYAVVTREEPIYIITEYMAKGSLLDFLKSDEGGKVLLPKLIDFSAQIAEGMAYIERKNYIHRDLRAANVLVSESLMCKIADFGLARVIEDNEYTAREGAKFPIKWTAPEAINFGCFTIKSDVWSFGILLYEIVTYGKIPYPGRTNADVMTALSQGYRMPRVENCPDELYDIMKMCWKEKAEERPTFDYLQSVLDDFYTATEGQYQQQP
# Btk enzyme (His-Btk) = Btk enzyme (His-Btk) (Homo sapiens (Human), UniProt Q06187); experiment: Btk enzyme activity (IMAP fluorescence polarization assay)
# Sequence of Btk enzyme (His-Btk) (Q06187 whole entry): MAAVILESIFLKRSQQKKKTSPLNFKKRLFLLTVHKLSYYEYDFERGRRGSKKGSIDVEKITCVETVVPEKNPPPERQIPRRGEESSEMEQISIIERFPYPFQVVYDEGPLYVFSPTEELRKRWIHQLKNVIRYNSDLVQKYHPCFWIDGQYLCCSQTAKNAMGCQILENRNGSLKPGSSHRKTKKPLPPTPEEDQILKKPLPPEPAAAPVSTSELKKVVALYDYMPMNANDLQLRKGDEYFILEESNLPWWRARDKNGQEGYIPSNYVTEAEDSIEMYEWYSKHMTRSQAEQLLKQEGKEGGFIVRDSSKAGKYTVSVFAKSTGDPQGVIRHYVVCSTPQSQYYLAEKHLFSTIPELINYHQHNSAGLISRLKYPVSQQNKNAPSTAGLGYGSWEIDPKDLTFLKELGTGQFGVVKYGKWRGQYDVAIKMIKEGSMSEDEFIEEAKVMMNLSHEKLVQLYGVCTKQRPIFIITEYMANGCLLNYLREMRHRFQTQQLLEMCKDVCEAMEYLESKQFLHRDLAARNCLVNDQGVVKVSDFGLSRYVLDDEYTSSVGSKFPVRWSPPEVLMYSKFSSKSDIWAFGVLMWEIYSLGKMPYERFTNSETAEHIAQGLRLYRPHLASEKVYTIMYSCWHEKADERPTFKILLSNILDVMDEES
# Src enzyme = Src enzyme (Homo sapiens (Human), UniProt P12931); experiment: Src enzyme activity (IMAP fluorescence polarization assay); details: read-out: EC50 Src activity values; IMAP, 60 min pre-incubation, 4 μM ATP
# Sequence of Src enzyme (P12931 whole entry, looked up): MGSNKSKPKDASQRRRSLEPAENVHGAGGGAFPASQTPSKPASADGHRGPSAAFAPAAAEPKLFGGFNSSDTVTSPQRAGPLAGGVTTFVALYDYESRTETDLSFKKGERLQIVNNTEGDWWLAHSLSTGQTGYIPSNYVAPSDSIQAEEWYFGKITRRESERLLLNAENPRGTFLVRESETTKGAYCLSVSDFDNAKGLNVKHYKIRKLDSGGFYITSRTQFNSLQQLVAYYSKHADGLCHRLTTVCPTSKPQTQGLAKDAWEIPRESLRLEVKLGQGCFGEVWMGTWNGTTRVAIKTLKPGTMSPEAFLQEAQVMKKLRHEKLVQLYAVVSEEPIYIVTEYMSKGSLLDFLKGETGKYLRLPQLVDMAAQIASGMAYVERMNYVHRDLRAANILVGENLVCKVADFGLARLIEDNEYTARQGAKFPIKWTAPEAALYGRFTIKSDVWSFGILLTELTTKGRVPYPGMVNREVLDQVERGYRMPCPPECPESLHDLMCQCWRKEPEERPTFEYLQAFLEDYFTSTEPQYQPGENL
# FynT enzyme = FynT enzyme (Homo sapiens (Human), UniProt P06241); experiment: FynT enzyme activity (IMAP fluorescence polarization assay); type: biochemical; details: 60 min pre-incubation, 0.2 μM ATP
# Sequence of FynT enzyme (P06241 other isoform, or with tags, fused parts or gaps): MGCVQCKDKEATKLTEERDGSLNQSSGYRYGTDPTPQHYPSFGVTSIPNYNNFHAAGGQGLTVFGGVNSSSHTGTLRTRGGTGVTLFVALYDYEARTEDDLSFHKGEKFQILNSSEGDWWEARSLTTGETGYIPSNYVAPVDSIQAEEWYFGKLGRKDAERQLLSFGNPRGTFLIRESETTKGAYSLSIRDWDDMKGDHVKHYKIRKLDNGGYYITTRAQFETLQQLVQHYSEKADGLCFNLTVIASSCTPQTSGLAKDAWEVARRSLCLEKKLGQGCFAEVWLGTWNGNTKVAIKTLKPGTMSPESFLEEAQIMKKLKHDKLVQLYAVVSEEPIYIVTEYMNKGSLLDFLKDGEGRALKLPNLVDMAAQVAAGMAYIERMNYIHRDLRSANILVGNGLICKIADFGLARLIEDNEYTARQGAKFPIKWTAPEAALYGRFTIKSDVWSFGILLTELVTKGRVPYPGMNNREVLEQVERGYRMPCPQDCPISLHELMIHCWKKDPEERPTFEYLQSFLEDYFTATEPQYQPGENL
# Description: FynT enzyme activity is measured using the IMAP (immobilized metal ion affinity-based fluorescence polarization) assay as outlined below.
# Test compounds and FynT enzyme are pre-incubated 60 minutes at room temperature, before adding 5 μL/well of 400 nM Fluorescin labeled substrate peptide (p34cdc2 substrate peptide, e.g. #R7157/#R7172, Molecular Devices) in KR-buffer. Final peptide substrate concentration in assay is 100 nM. […] Following incubation for 2 h at room temperature the enzyme reaction is stopped by adding 40 μL/well IMAP Progressive Binding Solution (according to suppliers (Molecular Devices) protocol using 75% 1× buffer A and 25% 1× buffer B with 1:600 Progressive Binding Solution). After 60 min incubation at room temperature in the dark the FP signal is read. […] Values are calculated as percentage of the difference in readout (ΔmPi) of the controls with and without ATP. EC50 values are determined by curve fitting of the experimental results using Activity Base.
# [1] = read-out: EC50 Lck activity values, IMAP, 60 min pre-incubation, 6 μM ATP, bin bound in μM
# [2] = read-out: EC50 Lyn activity values, 60 min pre-incubation, 2 μM ATP, bin bound in μM
# [3] = read-out: EC50 Btk activity values, IMAP, 60 min pre-incubation, 5 μM ATP, bin bound in nM
# [4] = IMAP, 60 min pre-incubation, 5 μM ATP, bin bound in nM
# [5] = IMAP, 60 min pre-incubation, 5 μM ATP, bin bound in μM
# [6] = IMAP, 60 min pre-incubation, 6 μM ATP, bin bound in μM
# Sequence of Lck enzyme (P06239 whole entry): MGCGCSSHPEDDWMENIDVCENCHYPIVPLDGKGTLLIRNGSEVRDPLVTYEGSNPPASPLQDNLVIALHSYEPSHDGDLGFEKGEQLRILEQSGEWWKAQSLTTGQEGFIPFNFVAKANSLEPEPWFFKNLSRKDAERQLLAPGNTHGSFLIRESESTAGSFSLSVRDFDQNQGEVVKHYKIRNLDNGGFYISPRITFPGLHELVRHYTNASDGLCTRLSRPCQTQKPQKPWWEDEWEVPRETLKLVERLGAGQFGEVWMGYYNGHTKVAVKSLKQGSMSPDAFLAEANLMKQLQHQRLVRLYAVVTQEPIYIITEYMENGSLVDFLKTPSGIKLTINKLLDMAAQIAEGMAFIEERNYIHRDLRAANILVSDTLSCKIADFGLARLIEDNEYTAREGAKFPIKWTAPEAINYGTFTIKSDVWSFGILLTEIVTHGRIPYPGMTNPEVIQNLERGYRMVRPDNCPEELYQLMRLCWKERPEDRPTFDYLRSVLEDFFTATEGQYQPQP
Structure (SMILES),EC50 (Lck enzyme; [1]),EC50 (Lyn enzyme; [2]),EC50 (Btk enzyme (His-Btk); [3]),EC50 (Src enzyme),EC50 (FynT enzyme),EC50 (Btk enzyme (His-Btk)),EC50 Btk activity values (Btk enzyme (His-Btk); [4]),"EC50 (Lyn enzyme; EC50 Lyn activity values, 60 min pre-incubation, 2 μM ATP, bin bound in μM)",EC50 Btk activity values (Btk enzyme (His-Btk); [5]),EC50 (Lck enzyme),EC50 Lck activity values (Lck enzyme; [6]),"EC50 Lyn activity values (Lyn enzyme; 60 min pre-incubation, 2 μM ATP, bin bound in μM)","EC50 (Lyn enzyme; EC50 Lyn activity values, 60 min pre-incubation, 2 μM ATP, bin bound in nM)"
"CC#CC(=O)N1CCC[C@H]1c1nc(-c2ccc(C(=O)Nc3ccccn3)c(OC)c2)c2c(N)nccn12 [Example 99, (S)-4-(8-amino-3-(1-but-2-ynoylpyrrolidin-2-yl)imidazo[1,5-a]pyrazin-1-yl)-2-methoxy-N-(pyridin-2-yl)benzamide]",≥ 1 µM,≥ 1 µM,–,≥ 1000 nM,≥ 1000 nM,10 to 100 nM,<100 nM,–,–,–,–,–,–
"COC/C=C/C(=O)N1CCC[C@H]1c1nc(-c2ccc(C(=O)Nc3cc(OC)ccn3)cc2)c2c(N)nccn12 [Example 51, (S,E)-4-(8-amino-3-(1-(4-methoxybut-2-enoyl)pyrrolidin-2-yl)imidazo[1,5-a]pyrazin-1-yl)-N-(4-methoxypyridin-2-yl)benzamide]",≥ 1 µM,≥ 1 µM,–,≥ 1000 nM,≥ 1000 nM,10 to 100 nM,<100 nM,–,–,–,–,–,–
"C=C(C(=O)N1CCC[C@H]1c1nc(-c2ccc(C(=O)Nc3ccccn3)cc2)c2c(N)nccn12)C(F)(F)F [Example 92, (S)-4-(8-amino-3-(1-(2-(trifluoromethyl)acryloyl)pyrrolidin-2-yl)imidazo[1,5-a]pyrazin-1-yl)-N-(pyridin-2-yl)benzamide]",≥ 1 µM,≥ 1 µM,–,≥ 1000 nM,≥ 1000 nM,100 to 1000 nM,–,–,<1000 nM,–,–,–,–
"Nc1nccn2c([C@@H]3CCCN3C(=O)c3cc(Cl)ncn3)nc(-c3ccc(C(=O)Nc4ccccn4)cc3)c12 [Example 33, (S)-4-(8-Amino-3-(1-(6-chloropyrimidine-4-carbonyl)pyrrolidin-2-yl)imidazo[1,5-a]pyrazin-1-yl)-N-(pyridin-2-yl)benzamide]",≥ 1 µM,≥ 1 µM,< 10 nM,≥ 1000 nM,≥ 1000 nM,–,–,–,–,–,–,–,–
"COC/C=C/C(=O)N1CCCC[C@H]1c1nc(-c2ccc(C(=O)Nc3ccncn3)cc2)c2c(N)nccn12 [Example 86, (S,E)-4-(8-amino-3-(1-(4-methoxybut-2-enoyl)piperidin-2-yl)imidazo[1,5-a]pyrazin-1-yl)-N-(pyrimidin-4-yl)benzamide]",≥ 1 µM,≥ 1 µM,–,≥ 1000 nM,≥ 1000 nM,100 to 1000 nM,–,–,<1000 nM,–,–,–,–
"CCCc1ccnc(NC(=O)c2ccc(-c3nc([C@@H]4CCCN4C(=O)/C=C/CN4CCCC4)n4ccnc(N)c34)cc2)c1 [Example 77, (S,E)-4-(8-amino-3-(1-(4-(pyrrolidin-1-yl)but-2-enoyl)pyrrolidin-2-yl)imidazo[1,5-a]pyrazin-1-yl)-N-(4-propylpyridin-2-yl)benzamide]",≥ 1 µM,≥ 1 µM,< 10 nM,≥ 1000 nM,≥ 1000 nM,–,–,–,–,–,–,–,–
"C=CC(=O)N1CCC[C@H]1c1nc(-c2ccc(C(=O)Nc3cc(C(F)(F)F)ccn3)cc2)c2c(N)nccn12 [Example 62, (S)-4-(3-(1-acryloylpyrrolidin-2-yl)-8-aminoimidazo[1,5-a]pyrazin-1-yl)-N-(4-(trifluoromethyl)pyridin-2-yl)benzamide]",–,≥ 1 µM,< 10 nM,≥ 1000 nM,≥ 1000 nM,–,–,–,–,0.1 to 1 µM,<1 µM,–,–
"C=CC(=O)N1CCC[C@H]1c1nc(-c2ccc(C(=O)Nc3cc(-c4ccccc4)ccn3)cc2)c2c(N)nccn12 [Example 133, (S)-4-(3-(1-acryloylpyrrolidin-2-yl)-8-aminoimidazo[1,5-a]pyrazin-1-yl)-N-(4-phenylpyridin-2-yl)benzamide]",–,–,< 10 nM,≥ 1000 nM,≥ 1000 nM,–,–,–,–,0.1 to 1 µM,<1 µM,<1 µM,0.1 to 1 µM
"CCCc1ccnc(NC(=O)c2ccc(-c3nc([C@@H]4CCCCN4C(=O)/C=C/COC)n4ccnc(N)c34)cc2F)c1 [Example 114, (S,E)-4-(8-amino-3-(1-(4-methoxybut-2-enoyl)piperidin-2-yl)imidazo[1,5-a]pyrazin-1-yl)-2-fluoro-N-(4-propylpyridin-2-yl)benzamide]",≥ 1 µM,≥ 1 µM,–,≥ 1000 nM,≥ 1000 nM,10 to 100 nM,<100 nM,–,–,–,–,–,–
"CC#CC(=O)N1CCC[C@H]1c1nc(-c2ccc(C(=O)Nc3cc(CCC)ccn3)cc2)c2c(N)nccn12 [Example 47, (S)-4-(8-amino-3-(1-but-2-ynoylpyrrolidin-2-yl)imidazo[1,5-a]pyrazin-1-yl)-N-(4-propylpyridin-2-yl)benzamide]",≥ 1 µM,≥ 1 µM,< 10 nM,≥ 1000 nM,≥ 1000 nM,–,–,–,–,–,–,–,–
"Nc1nccn2c([C@@H]3CCCN3C(=O)/C=C/c3ccccc3)nc(-c3ccc(C(=O)Nc4ccccn4)cc3)c12 [Example 104, (S,E)-4-(8-amino-3-(1-cinnamoylpyrrolidin-2-yl)imidazo[1,5-a]pyrazin-1-yl)-N-(pyridin-2-yl)benzamide]",–,≥ 1 µM,–,≥ 1000 nM,≥ 1000 nM,100 to 1000 nM,–,–,<1000 nM,0.1 to 1 µM,<1 µM,–,–
"CN(C)C/C=C/C(=O)N1CCC[C@H]1c1nc(-c2ccc(C(=O)Nc3cc(F)ccn3)cc2)c2c(N)nccn12 [Example 7, (S,E)-4-(8-Amino-3-(1-(4-(dimethylamino)but-2-enoyl)pyrrolidin-2-yl)imidazo[1,5-a]pyrazin-1-yl)-N-(4-fluoropyridin-2-yl)benzamide]",≥ 1 µM,≥ 1 µM,–,≥ 1000 nM,≥ 1000 nM,10 to 100 nM,<100 nM,–,–,–,–,–,–

# Other lines, results leading:
EC50 (Lck enzyme; [1]),EC50 (Lyn enzyme; [2]),EC50 (Btk enzyme (His-Btk); [3]),EC50 (Src enzyme),EC50 (FynT enzyme),EC50 (Btk enzyme (His-Btk)),EC50 Btk activity values (Btk enzyme (His-Btk); [4]),"EC50 (Lyn enzyme; EC50 Lyn activity values, 60 min pre-incubation, 2 μM ATP, bin bound in μM)",EC50 Btk activity values (Btk enzyme (His-Btk); [5]),EC50 (Lck enzyme),EC50 Lck activity values (Lck enzyme; [6]),"EC50 Lyn activity values (Lyn enzyme; 60 min pre-incubation, 2 μM ATP, bin bound in μM)","EC50 (Lyn enzyme; EC50 Lyn activity values, 60 min pre-incubation, 2 μM ATP, bin bound in nM)",Structure (SMILES)
≥ 1 µM,≥ 1 µM,< 10 nM,≥ 1000 nM,≥ 1000 nM,–,–,–,–,–,–,–,–,"CCc1cnc(NC(=O)c2ccc(-c3nc([C@@H]4CCCCN4C(=O)c4ccnc(Cl)n4)n4ccnc(N)c34)cc2)s1 [Example 118, (S)-4-(8-amino-3-(1-(2-chloropyrimidine-4-carbonyl)piperidin-2-yl)imidazo[1,5-a]pyrazin-1-yl)-N-(5-ethylthiazol-2-yl)benzamide]"
≥ 1 µM,≥ 1 µM,< 10 nM,≥ 1000 nM,≥ 1000 nM,–,–,–,–,–,–,–,–,"C=CC(=O)N1CCCC[C@H]1c1nc(-c2ccc(C(=O)Nc3cc(CCC)ccn3)c(F)c2)c2c(N)nccn12 [Example 26, (S)-4-(3-(1-Acryloylpiperidin-2-yl)-8-aminoimidazo[1,5-a]pyrazin-1-yl)-2-fluoro-N-(4-propylpyridin-2-yl)benzamide]"
≥ 1 µM,≥ 1 µM,–,≥ 1000 nM,≥ 1000 nM,10 to 100 nM,<100 nM,–,–,–,–,–,–,"C[C@H](NC(=O)c1ccnc(Cl)n1)c1nc(-c2ccc(C(=O)Nc3ccccn3)cc2)c2c(N)nccn12 [Example 105, (S)-N-(1-(8-amino-1-(4-(pyridin-2-ylcarbamoyl)phenyl)imidazo[1,5-a]pyrazin-3-yl)ethyl)-2-chloropyrimidine-4-carboxamide]"
≥ 1 µM,≥ 1 µM,< 10 nM,≥ 1000 nM,≥ 1000 nM,–,–,–,–,–,–,–,–,"C=CC(=O)N1CCCC[C@H]1c1nc(-c2ccc(C(=O)Nc3cc(F)ccn3)cc2)c2c(N)nccn12 [Example 17, (S)-4-(3-(1-Acryloylpiperidin-2-yl)-8-aminoimidazo[1,5-a]pyrazin-1-yl)-N-(4-fluoropyridin-2-yl)benzamide]"
≥ 1 µM,–,< 10 nM,≥ 1000 nM,≥ 1000 nM,–,–,≥ 1 µM,–,–,–,–,–,"COC/C=C/C(=O)N1CCCC[C@H]1c1nc(-c2ccc(C(=O)Nc3cc(C(F)(F)F)ccn3)cc2)c2c(N)nccn12 [Example 108, (S,E)-4-(8-amino-3-(1-(4-methoxybut-2-enoyl)piperidin-2-yl)imidazo[1,5-a]pyrazin-1-yl)-N-(4-(trifluoromethyl)pyridin-2-yl)benzamide]"
≥ 1 µM,≥ 1 µM,< 10 nM,≥ 1000 nM,≥ 1000 nM,–,–,–,–,–,–,–,–,"C=CC(=O)N1CCCC[C@H]1c1nc(-c2ccc(C(=O)Nc3ccccn3)cc2)c2c(N)nccn12 [Example 46, (S)-4-(3-(1-acryloylpiperidin-2-yl)-8-aminoimidazo[1,5-a]pyrazin-1-yl)-N-(pyridin-2-yl)benzamide]"
